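These data come from cells grown in 96-well plates and exposed to compound for 48 hours at five concentrations. Here, GI50 denotes the concentration required for 50% inhibition of growth. TGI: concentration producing complete growth inhibition.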
Columns and labels:
Assay in all cases: DTP human tumour cell line panel, 48 h
[1] = system: ACHN renal
[2] = system: EKVX NSCLC
[3] = system: HS 578T breast
[4] = system: M14 melanoma
[5] = system: OVCAR-4 ovarian
[6] = system: OVCAR-5 ovarian
[7] = system: RXF 393 renal
[8] = system: SK-MEL-5 melanoma
[9] = system: SN12C renal
[10] = system: SR leukemia

Compound	GI50 [1]	TGI [1]	GI50 [2]	TGI [2]	GI50 [3]	TGI [3]	GI50 [4]	TGI [4]	GI50 [5]	TGI [5]	GI50 [6]	TGI [6]	GI50 [7]	TGI [7]	GI50 [8]	TGI [8]	GI50 [9]	TGI [9]	GI50 [10]	TGI [10]
O=[N+]([O-])c1ccc(C2=NCCO2)cc1	> 100 µM	> 100 µM	> 100 µM	> 100 µM	> 100 µM	> 100 µM	> 100 µM	> 100 µM	> 100 µM	> 100 µM	> 100 µM	> 100 µM	> 100 µM	> 100 µM	> 100 µM	> 100 µM	> 100 µM	> 100 µM	> 100 µM	> 100 µM
COC(=O)[C@@H](C)C[C@H](Cc1ccccc1)NC(=O)c1nc([C@@H](C[C@H](C(C)C)N(C)C(=O)[C@@H](NC(=O)[C@H]2C[C@H](O)CCN2C)C(C)C)OC(C)=O)sc1C(C)C	0.101 µM	> 11.1 µM	0.161 µM	> 11.1 µM	0.0122 µM	> 8.26 µM	0.0149 µM	1.24 µM	0.0493 µM	> 11.1 µM	0.0428 µM	> 11.1 µM	0.025 µM	> 11.1 µM	0.00369 µM	0.185 µM	0.00671 µM	3.3 µM	0.00126 µM	> 11.1 µM
O=C(O)c1ccc(N(/C=C/C(=O)C(F)(F)F)Cc2ccc(Cl)cc2)cc1	24.4 µM	66 µM	19.6 µM	47.9 µM	26.4 µM	84.7 µM	22.7 µM	62.7 µM			44.6 µM	> 100 µM	46.3 µM	> 100 µM	25 µM	81.1 µM	32.3 µM	> 100 µM	27.3 µM	71.5 µM
CC1=C(CCCOC(=O)[C@H](N)CC(C)C)C2=C(C)C3(CC3)[C@@](C)(O)C(=O)C2=C1			2.77 µM	8.66 µM	5.3 µM	43.8 µM	1.67 µM	4.41 µM	1.54 µM	21.6 µM	1.94 µM	11.8 µM	0.492 µM	1.29 µM	1.44 µM	2.83 µM	2.6 µM	> 100 µM	12.8 µM	> 100 µM
C[C@@H]1CN2[C@H]3[C@@H]1CC[C@]31CCC(=O)O[C@]1(C)[C@H]1CC[C@H]3CCC=C3[C@@H]12	> 30 µM	> 30 µM	> 30 µM	> 30 µM	> 30 µM	> 30 µM	> 30 µM	> 30 µM	> 30 µM	> 30 µM	> 30 µM	> 30 µM	> 30 µM	> 30 µM	> 30 µM	> 30 µM	> 30 µM	> 30 µM	> 30 µM	> 30 µM
CC(=O)/C(=C\c1ccc(Cl)cc1)c1ccccc1	0.548 µM	> 70 µM	1.82 µM	> 100 µM	0.0832 µM	> 100 µM			0.382 µM	> 100 µM		> 100 µM	0.0579 µM		0.0818 µM	1.14 µM	0.541 µM	> 100 µM	0.0415 µM	> 49.7 µM
ClC1=C(Cl)C(Cl)(C2(Cl)C(Cl)=C(Cl)C(Cl)=C2Cl)C(Cl)=C1Cl	0.165 µM	0.312 µM	1.52 µM	3.88 µM	2.22 µM	6.43 µM	0.252 µM	0.716 µM	0.2 µM	0.509 µM	1.22 µM	2.76 µM	0.186 µM	0.396 µM	1.27 µM	2.73 µM	1.32 µM	3.8 µM	0.272 µM	1.52 µM
O=C(N/N=C/c1ccc(Cl)cc1)c1ccc(NC(=O)c2ccccn2)cc1	19.1 µM	59.3 µM	48.7 µM	> 100 µM	21.1 µM	> 100 µM	56.8 µM	> 100 µM	3.07 µM	10.6 µM	68 µM	> 100 µM	15.4 µM	63.3 µM	8.76 µM	41.8 µM	18.9 µM	55.4 µM	70.8 µM	> 100 µM
CC(=O)OCC1C(=O)OCC1C(=O)N1Cc2cc3ccccc3nc2C1 (stereo not drawn)		3.39 µM		17.3 µM		> 86.5 µM		3.67 µM		4.89 µM		15.8 µM		2.57 µM		23.1 µM		14.4 µM		10.7 µM
O=C1NN2CC(c3ccccc3)=NN=C2c2ccccc21	36.9 µM	> 100 µM	31.3 µM	> 100 µM	68 µM	> 100 µM	21.9 µM	48.9 µM	61 µM	> 100 µM	37.9 µM	> 100 µM	23 µM	48.4 µM	26.8 µM	67.2 µM	29.1 µM	78.3 µM	0.507 µM	42 µM
C[N+]1([O-])C2CCC1CC(OC(=O)C(CO)c1ccccc1)C2 (stereo not drawn)		> 100 µM		> 100 µM		> 100 µM		> 100 µM		> 100 µM		> 100 µM		> 100 µM		> 100 µM		> 100 µM		> 100 µM
CC(C)=CC[C@@H]1CC2(CC=C(C)C)C(=O)C(OC3(C(=O)c4ccccc4)C(=O)C4(CC=C(C)C)C[C@@H](CC=C(C)C)C(C)(C)C(CC=C(C)C)(C4=O)C3=O)(C(=O)c3ccccc3)C(=O)C(CC=C(C)C)(C2=O)C1(C)C (stereo partly drawn)	1.48 µM	5.99 µM	1.2 µM	4.2 µM	1.6 µM	4.67 µM	1.13 µM	3.13 µM			1.51 µM	8.06 µM	1.13 µM	2.69 µM	0.806 µM	1.58 µM	1.54 µM	5.67 µM	1.67 µM	50 µM
CNC(=O)Oc1cc(C(C)C)ccc1Sc1ccc(C(C)C)cc1OC(=O)NC	6.92 µM	24.4 µM	1.59 µM	7.14 µM	4.7 µM	35.6 µM	3.61 µM	16.3 µM			11.4 µM	25.7 µM	2.52 µM	9.34 µM	2.5 µM	11.8 µM	7 µM	24 µM	2.2 µM	10 µM
